# Test results: patent US20250375473A1, “Pharmaceutical composition for treating cancer comprising an ionic compound having metal ion binding thereto” (METAFINES.CO.LTD., priority 2018, published 2025)
# Read-outs that look alike come from different tables or passages of the source.
# Legend:
# HCT-116 cell = assay: IC50 of each drug alone, 48 h, HCT-116; format: cell-based, human
# Method: (§1) Then, various concentration of Example or chemical anticancer drugs (Fluorouracil (5-FU), SN-38, Paclitaxel (PTX)) were treated thereto alone.
# DLD-1 = assay: Hetero salts vs homo salts, cell viability and cytotoxicity, DLD-1; format: cell-based; conditions: for viability at 10000 µM: DLD-1, read-out: cell viability, DLD-1 (10 mM)
# Method: (§2) Hetero salts prepared according to the examples (ASCA101, ASCA201) and homo salts were applied to colorectal cancer cell lines, and their effects on cell viability and cytotoxicity were evaluated.
# (§3) Herein, “Na-ASC” refers to sodium ascorbate, “Na-DCA” refers to sodium dichloroacetate, “Ca (ASC) 2” refers to calcium ascorbate, “Ca (DCA) 2” refers to calcium dichloroacetate, and “Ca (LA) 2” refers to calcium lactate.
# SW480 = assay: Hetero salts vs homo salts, cell viability and cytotoxicity, SW480; format: cell-based; conditions: for viability at 5000 µM: SW480, read-out: cell viability, SW480 (5 mM)
# Method: as §2, §3
# [1] = tested on: human colorectal cancer cell lines (HCT-116 and HT-29); assay: Change in ascorbic acid level in cancer cells; format: cell-based; conditions: 1 mM; 24 h; lysate; vs untreated control
# Method: After culture, the cultured cancer cells were pulverized with a homogenizer and centrifuged, and the concentration of ascorbic acid contained in the lysate was measured using an ascorbic acid assay kit (Biovision, San Francisco, CA).
# [2] = tested on: colorectal cancer cell line (DLD-1); assay: MTT assay, 72 h, colorectal cancer cell line; format: cell-based; conditions: for IC50: Homo sapiens
# Method: (§4) The calcium salts of Examples 1 to 3 were added to each well by concentration (20 mg/ ? , mg/ ? , 0.8 mg/ ? , 0.16 mg/ ? , 0.032 mg/ ? , 0.0064 mg/ ? , 0.00128 mg/ ? , 0.000256 mg/ ? ). […] The supernatant was removed using a centrifuge, DMSO 200 ? was added to each well to dissolve the MTT stained precipitate, and OD540 value was measured at 540 nm with an ELISA reader.
# [3] = tested on: breast cancer cell line (MDA-MB-231); assay: MTT assay, 72 h, breast cancer cell line; format: cell-based; conditions: for IC50: Homo sapiens, MDA-MB-231, 72 h; for IC50 of Breast cancer cell line: MDA-MB-231, 72 h, MTT
# Method: as §4
# [4] = tested on: brain cancer cell line (U87MG); assay: MTT assay, 72 h, brain cancer cell line; format: cell-based; conditions: for IC50: Homo sapiens, U-87 MG
# Method: as §4
# [5] = tested on: lung cancer cell line (A-549); assay: MTT assay, 48 h, A549
# Method: (§5) 7 cell lines were aliquoted to each well of a 96-well plate at 5×10^3 cells, and cultured for 24 hours. […] The drug-treated cells were cultured in an incubator (37° C., 5% CO2) for 48 hours, and 5 mg/ ? MTT reagent 10 ? was added to each well and cultured for additional 4 hours. Then, culture medium was removed and DMSO 100 ? was treated to dissolve the MTT stained precipitate, and absorbance was measured at 540 nm with a microplate reader.
# [6] = tested on: colorectal cancer cell line (HT-29); assay: MTT assay, 48 h, HT-29
# Method: as §5
# [7] = tested on: liver cancer cell line (HepG2); assay: MTT assay, 48 h, HepG2
# Method: as §5
# [8] = tested on: ovarian cancer cell line (A2780); assay: MTT assay, 48 h, A2780
# Method: as §5
# [9] = tested on: pancreatic cancer cell line (PANC-1); assay: MTT assay, 48 h, PANC-1
# Method: as §5
# [10] = tested on: colorectal cancer cell line (HCT-116); assay: MTT assay, 48 h, HCT-116; conditions: for IC50: Homo sapiens, HCT-116, 48 h
# Method: as §5
# [11] = tested on: stomach cancer cell line (SNU-638); assay: MTT assay, 48 h, SNU-638
# Method: as §5
# PDH enzyme = assay: Time-dependent PDH enzyme activity in cancer cells; format: cell-based; conditions: DLD-1 and HT-29 cancer cells; FIG. 29
# [12] = tested on: poly (ADP-ribose) polymerase 1 (PARP-1); assay: Western blot, PARP-1 expression in HCT-116; format: cell-based, human; conditions: 24 h
# Method: The cultured cancer cells were pulverized with a homogenizer and centrifuged, and the expression levels of poly (ADP-ribose) polymerase 1 (PARP-1), β-catenin, VEGF and β-actin proteins contained in the lysate were measured using Western blot.
# HT-29 cell = assay: IC50 of each drug alone, 48 h, HT-29; format: cell-based, human
# Method: as §1
# DLD-1 cell = assay: IC50 of each drug alone, 48 h, DLD-1; format: cell-based
# Method: as §1
# [13] = Homo sapiens, HCT-116, read-out: IC50 value, HCT-116 cell
# [14] = Homo sapiens, DLD-1, read-out: cytotoxicity, DLD-1
# [15] = Homo sapiens, SW480, read-out: cytotoxicity, SW-480
# [16] = read-out: IC50 value, HCT-116 cell
# [17] = Homo sapiens, A549, 48 h, read-out: IC50 mM of A549 Lung cancer
# [18] = Homo sapiens, A549, 48 h, read-out: IC50 of A549 Lung cancer (mg/ml)
# [19] = Homo sapiens, HT-29, 48 h, read-out: IC50 mM of HT-29 Colorectal cancer cell line
# [20] = Homo sapiens, HT-29, 48 h, read-out: IC50 of HT-29 Colorectal cancer cell line (mg/ml)
# [21] = Homo sapiens, HepG2, 48 h, read-out: IC50 mM of HepG2 Liver cancer
# [22] = Homo sapiens, HepG2, 48 h, read-out: IC50 of HepG2 Liver cancer (mg/ml)
# [23] = Homo sapiens, A2780, 48 h, read-out: IC50 mM of A2780 Ovarian cancer
# [24] = Homo sapiens, A2780, 48 h, read-out: IC50 of A2780 Ovarian cancer (mg/ml)
# [25] = Homo sapiens, PANC-1, 48 h, read-out: IC50 mM of PANC-1 Pancreatic cancer
# [26] = Homo sapiens, PANC-1, 48 h, read-out: IC50 of PANC-1 Pancreatic cancer (mg/ml)
# [27] = read-out: IC50 mM of HCT-116 Colorectal cancer cell line
# [28] = read-out: IC50 of HCT-116 Colorectal cancer cell line (mg/ml)
# [29] = Homo sapiens, SNU-638, 48 h, read-out: IC50 mM of SNU-638 Stomach cancer
# [30] = Homo sapiens, SNU-638, 48 h, read-out: IC50 of SNU-638 Stomach cancer (mg/ml)
compound,measurement,setting,value
"O=c1[nH]cc(F)c(=O)[nH]1 [Fluorouracil (5-FU), Fluorouracil]",IC50,HCT-116 cell; [13],6 µM
"O=C([O-])C(Cl)Cl.[Na+] [Na-DCA, sodium dichloroacetate]",viability at 10000 µM,DLD-1; Homo sapiens,75.4%
same,IC50,DLD-1; [14],> 10000 µM
same,viability at 5000 µM,SW480; Homo sapiens,99.8%
same,IC50,SW480; [15],> 5000 µM
CCc1c2c(nc3ccc(O)cc13)-c1cc3c(c(=O)n1C2)COC(=O)[C@]3(O)CC [SN-38],IC50,HCT-116 cell; [16],0.25 µM
"O=C1O[C@H]([C@@H](O)CO)C(O)=C1O [ascorbic acid, reference compound]",ascorbic acid concentration in cancer cells,[1],lower level of increased ascorbic acid concentration
same,IC50,"[2]; DLD-1, 72 h, MTT, read-out: IC50 of Colorectal cancer cell line",0.09 mg/mL
same,IC50,[3]; read-out: IC50 of Breast cancer cell line,0.06 mg/mL
same,IC50,"[4]; U87MG, MTT, read-out: IC50 of Brain cancer cell line",0.9 mg/mL
same,IC50,[5]; [17],> 5 mM
same,IC50,[5]; [18],> 1.7 mg/mL
same,IC50,[6]; [19],0.93 mM
same,IC50,[6]; [20],0.32 mg/mL
same,IC50,[7]; [21],4.2 mM
same,IC50,[7]; [22],1.44 mg/mL
same,IC50,[8]; [23],0.15 mM
same,IC50,[8]; [24],0.05 mg/mL
same,IC50,[9]; [25],0.37 mM
same,IC50,[9]; [26],0.13 mg/mL
same,IC50,[10]; [27],0.27 mM
same,IC50,[10]; [28],0.09 mg/mL
same,IC50,[11]; [29],2.48 mM
same,IC50,[11]; [30],0.85 mg/mL
calcium dichloroacetate [Ca(DCA)2],"cell viability, DLD-1 (10 mM)",DLD-1,62.53
same,"cell viability, SW480 (5 mM)",SW480,105.98
"O=C(O)C(Cl)Cl [Dichloroacetic acid, dichloroacetic acid, reference compound]",IC50,"[2]; DLD-1, 72 h, read-out: IC50 of Colorectal cancer cell line (mg/ml)",1.21 mg/mL
same,IC50,[3]; read-out: IC50 of Breast cancer cell line (mg/ml),0.43 mg/mL
same,IC50,[4]; read-out: IC50 of Brain cancer cell line (mg/ml),3.71 mg/mL
same,time-dependent PDH activity,PDH enzyme,peaked at 6 hours post-treatment and subsequently declined
same,IC50,[5]; [17],> 5 mM
same,IC50,[5]; [18],> 1.7 mg/mL
same,IC50,[6]; [19],> 5 mM
same,IC50,[6]; [20],> 1.7 mg/mL
same,IC50,[7]; [21],> 5 mM
same,IC50,[7]; [22],> 1.7 mg/mL
same,IC50,[8]; [23],> 5 mM
same,IC50,[8]; [24],> 1.7 mg/mL
same,IC50,[9]; [25],> 5 mM
same,IC50,[9]; [26],> 1.7 mg/mL
same,IC50,[10]; [27],> 5 mM
same,IC50,[10]; [28],> 1.7 mg/mL
same,IC50,[11]; [29],> 5 mM
same,IC50,[11]; [30],> 1.7 mg/mL
"O=C1O[C@H]([C@@H](O)CO)C([O-])=C1O.[Na+] [Na-ASC, sodium ascorbate]",viability at 10000 µM,DLD-1; Homo sapiens,65.3%
same,IC50,DLD-1; [14],9600 µM
same,viability at 5000 µM,SW480; Homo sapiens,40.8%
same,IC50,SW480; [15],3000 µM
"CC(=O)O[C@H]1C(=O)[C@@]2(C)[C@H]([C@H](OC(=O)c3ccccc3)[C@]3(O)C[C@H](OC(=O)[C@H](O)[C@@H](NC(=O)c4ccccc4)c4ccccc4)C(C)=C1C3(C)C)[C@]1(OC(C)=O)CO[C@@H]1C[C@@H]2O [Paclitaxel (PTX), Paclitaxel]",IC50,HCT-116 cell; [13],0.0078 µM
"CC(O)C(=O)[O-].O=C([O-])C(Cl)Cl.[Ca+2] (stereo not shown) [Example 3, calcium salts of dichloroacetic acid and lactate]",concentration at which expression level of full length PARP-1 was decreased the most,[12],0.3 mg/mL
same,IC50 of Colorectal cancer cell line,"[2]; DLD-1, 72 h, MTT",860 µg/mL
same,IC50 of Breast cancer cell line,[3],50 µg/mL
same,IC50 of Brain cancer cell line,"[4]; U87MG, MTT",800 µg/mL
calcium ascorbate [Ca(ASC)2],ascorbic acid concentration in cancer cells,[1],lower level of increased ascorbic acid concentration
same,"cell viability, DLD-1 (10 mM)",DLD-1,27.51
same,"cell viability, SW480 (5 mM)",SW480,33.19
"CC(O)C(=O)[O-].O=C1O[C@H]([C@@H](O)CO)C([O-])=C1O.[Ca+2] [Example 2, calcium salts of ascorbic acid and lactate]",ascorbic acid concentration in cancer cells,[1],increased
same,concentration at which expression level of full length PARP-1 was decreased the most,[12],0.34 mg/mL
same,IC50 of Colorectal cancer cell line,"[2]; DLD-1, 72 h, MTT",70 µg/mL
same,IC50 of Breast cancer cell line,[3],50 µg/mL
same,IC50 of Brain cancer cell line,"[4]; U87MG, MTT",600 µg/mL
same,IC50,HCT-116 cell; [16],430 µM
same,IC50,HT-29 cell,1800 µM
same,IC50,DLD-1 cell,340 µM
same,IC50,DLD-1,8600 µM
same,IC50,SW480,2600 µM
same,IC50 of A549 Lung cancer (mg/ml),"[5]; 48 h, MTT, value in brackets",(1.06) mg/ml
same,IC50,"[5]; read-out: IC50 mM of A549 Lung cancer, 48 h, MTT",3.1 mM
same,IC50 of HT-29 Colorectal cancer cell line (mg/ml),"[6]; 48 h, MTT, value in brackets",(0.23) mg/ml
same,IC50,"[6]; read-out: IC50 mM of HT-29 Colorectal cancer cell line, 48 h, MTT",0.66 mM
same,IC50 of HepG2 Liver cancer (mg/ml),"[7]; 48 h, MTT, value in brackets",(0.79) mg/ml
same,IC50,"[7]; read-out: IC50 mM of HepG2 Liver cancer, 48 h, MTT",2.3 mM
same,IC50 of A2780 Ovarian cancer (mg/ml),"[8]; 48 h, MTT, value in brackets",(0.05) mg/ml
same,IC50,"[8]; read-out: IC50 mM of A2780 Ovarian cancer, 48 h, MTT",0.14 mM
same,IC50 of PANC-1 Pancreatic cancer (mg/ml),"[9]; 48 h, MTT, value in brackets",(0.14) mg/ml
same,IC50,"[9]; read-out: IC50 mM of PANC-1 Pancreatic cancer, 48 h, MTT",0.4 mM
same,IC50 of HCT-116 Colorectal cancer cell line (mg/ml),"[10]; 48 h, MTT, value in brackets",(0.11) mg/ml
same,IC50 of SNU-638 Stomach cancer (mg/ml),"[11]; 48 h, MTT, value in brackets",(0.49) mg/ml
same,IC50,"[11]; read-out: IC50 mM of SNU-638 Stomach cancer, 48 h, MTT",1.44 mM
